Measurements published in US20210392895A1, “NOVEL OXADIAZOLES” (PI INDUSTRIES LIMITED, priority 2018, published 2021).
Structures can show the parent of a compound that is named as a salt.

What was measured:
Fusarium culmorum = Fusarium culmorum (foot rot of cereals) in vitro test, radial growth on Potato Dextrose Agar; format: cell-based; details: 168 h, 25° C., seven days, read-out: control compared to the untreated check (radial growth)
Alternaria solani = Alternaria solani (early blight of tomato/potato) in vitro test, radial growth on Potato Dextrose Agar; format: cell-based; details: 168 h, compared to the untreated check, radial growth after seven days, read-out: control
Phakopsora pachyrhizi = Phakopsora pachyrhizi test in soybean (greenhouse, preventive activity, disease severity rating); format: in vivo; details: preventive spray on soybean, compared to the untreated check
Outline: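 Greenhouse-raised young soybean plants sprayed with compound at stated rates, then inoculated one day later with 2.1×10^6 P. pachyrhizi spores and held at 25° C, 90% RH. Disease severity (0-100%) rated visually 3, 7, 10 and 15 days after application; % control calculated versus untreated plants.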

Rhizoctonia solani = Rhizoctonia solani (rice sheath blight/potato black scurf) in vitro test, radial growth on Potato Dextrose Agar; format: cell-based; details: 168 h, compared to the untreated check, radial growth after seven days, read-out: control
Pyricularia oryzae = assay: microbe, parasite or virus in culture; format: cell-based; details: 168 h, read-out: control
Colletotrichum capsici = Colletotrichum capsici (anthracnose) in vitro test, radial growth on Potato Dextrose Agar; details: Colletotrichum truncatum, 168 h, read-out: control
Experimental: Compounds were dissolved in 0.3% DMSO and then added to Potato Dextrose Agar medium just prior to dispensing it into petri dishes. 5 mL medium with compound in the desired concentration was dispensed into 60 mm sterile petri-plates. After solidification, each plate was seeded with a 5 mm size mycelial disc taken form the periphery of an actively growing virulent culture plate. Plates were incubated in growth chambers at 25° C. temperature and 60% relative humidity for seven days and radial growth was measured.

Corynespora cassicola = Corynespora cassicola (leaf spot of tomato) in vitro test, radial growth on Potato Dextrose Agar; format: cell-based; details: 168 h, compared to the untreated check, radial growth after seven days, read-out: control
Botrytis cinerea = Botrytis cinerea (gray mold) in vitro test, radial growth on Potato Dextrose Agar; format: cell-based; details: 168 h, compared to the untreated check, radial growth after seven days, read-out: control

O=C(c1cccnc1)N1CC[C@H](Oc2ccc(-c3noc(C(F)(F)F)n3)cc2)C1 [Compound 12, (S)-pyridin-3-yl(3-(4-(5-(trifluoromethyl)-1,2,4-oxadiazol-3-yl)phenoxy)pyrrolidin-1-yl)methanone]
> 70%: inhibition of growth at 300 ppm (Fusarium culmorum) | inhibition of growth at 300 ppm (Alternaria solani) | pest or weed control at 500 ppm (Phakopsora pachyrhizi) | inhibition of growth at 300 ppm (Rhizoctonia solani) | inhibition of growth at 300 ppm (Pyricularia oryzae) | inhibition of growth at 300 ppm (Colletotrichum capsici)

FC(F)(F)c1nc(-c2ccc(O[C@H]3CCN(Cc4ccccc4)C3)cc2)no1 [Compound 137, (S)-3-(4-((1-benzylpyrrolidin-3-yl)oxy)phenyl)-5-(trifluoromethyl)-1,2,4-oxadiazole]
> 70%: inhibition of growth at 300 ppm (Alternaria solani) | inhibition of growth at 300 ppm (Rhizoctonia solani) | inhibition of growth at 300 ppm (Pyricularia oryzae) | inhibition of growth at 300 ppm (Corynespora cassicola)

O=C(c1cscn1)N1CC[C@H](Oc2ccc(-c3noc(C(F)(F)F)n3)cn2)C1 [Compound 200, (S)-thiazol-4-yl(3-((5-(5-(trifluoromethyl)-1,2,4-oxadiazol-3-yl)pyridin-2-yl)oxy)pyrrolidin-1-yl)methanone]
> 70%: inhibition of growth at 300 ppm (Alternaria solani) | inhibition of growth at 300 ppm (Pyricularia oryzae) | inhibition of growth at 300 ppm (Colletotrichum capsici)

CC(=O)N1CCC(Oc2ccc(-c3noc(C(F)(F)F)n3)cc2)CC1 [Compound 95, 1-(4-(4-(5-(trifluoromethyl)-1,2,4-oxadiazol-3-yl)phenoxy)piperidin-1-yl)ethan-1-one]
> 70%: inhibition of growth at 300 ppm (Fusarium culmorum) | inhibition of growth at 300 ppm (Alternaria solani) | inhibition of growth at 300 ppm (Rhizoctonia solani) | inhibition of growth at 300 ppm (Pyricularia oryzae) | inhibition of growth at 300 ppm (Corynespora cassicola) | inhibition of growth at 300 ppm (Colletotrichum capsici) | inhibition of growth at 300 ppm (Botrytis cinerea)

O=C(Cc1ccccn1)N1CC[C@H](Oc2ccc(-c3noc(C(F)(F)F)n3)cc2)C1 [Compound 55, (S)-2-(pyridin-2-yl)-1-(3-(4-(5-(trifluoromethyl)-1,2,4-oxadiazol-3-yl)phenoxy)pyrrolidin-1-yl)ethan-1-one]
> 70%: inhibition of growth at 300 ppm (Fusarium culmorum) | inhibition of growth at 300 ppm (Rhizoctonia solani) | inhibition of growth at 300 ppm (Pyricularia oryzae) | inhibition of growth at 300 ppm (Corynespora cassicola) | inhibition of growth at 300 ppm (Colletotrichum capsici) | inhibition of growth at 300 ppm (Botrytis cinerea)

CC(=O)N1CC[C@H](Oc2ccc(-c3noc(C(F)(F)F)n3)c(F)c2)C1 [Compound 68, (S)-1-(3-(3-fluoro-4-(5-(trifluoromethyl)-1,2,4-oxadiazol-3-yl)phenoxy)pyrrolidin-1-yl)ethan-1-one]
> 70%: inhibition of growth at 300 ppm (Alternaria solani) | inhibition of growth at 300 ppm (Rhizoctonia solani) | inhibition of growth at 300 ppm (Pyricularia oryzae) | inhibition of growth at 300 ppm (Colletotrichum capsici) | inhibition of growth at 300 ppm (Botrytis cinerea)

O=C(c1ccc(F)cc1)N1CCC(Oc2cccc(-c3noc(C(F)(F)F)n3)c2)C1 (centres unmarked) [Compound 134, (4-fluorophenyl)(3-(3-(5-(trifluoromethyl)-1,2,4-oxadiazol-3-yl)phenoxy)pyrrolidin-1-yl)methanone]
> 70%: inhibition of growth at 300 ppm (Alternaria solani) | inhibition of growth at 300 ppm (Pyricularia oryzae)

CC(C)S(=O)(=O)N1CC[C@H](Oc2ccc(-c3noc(C(F)(F)F)n3)cc2)C1 [Compound 136, (S)-3-(4-((1-(isopropylsulfonyl)pyrrolidin-3-yl)oxy)phenyl)-5-(trifluoromethyl)-1,2,4-oxadiazole]
> 70%: inhibition of growth at 300 ppm (Colletotrichum capsici)

Cc1ccc(CN2CC[C@H](Oc3ccc(-c4noc(C(F)(F)F)n4)cc3)C2)cc1 [Compound 163, (S)-3-(4-((1-(4-methylbenzyl)pyrrolidin-3-yl)oxy)phenyl)-5-(trifluoromethyl)-1,2,4-oxadiazole]
> 70%: inhibition of growth at 300 ppm (Alternaria solani) | inhibition of growth at 300 ppm (Rhizoctonia solani) | inhibition of growth at 300 ppm (Pyricularia oryzae) | inhibition of growth at 300 ppm (Corynespora cassicola) | inhibition of growth at 300 ppm (Botrytis cinerea)

O=C(c1cccnc1)N1CC[C@H](Oc2ccc(-c3noc(C(F)(F)F)n3)cn2)C1 [Compound 48, (S)-pyridin-3-yl(3-((5-(5-(trifluoromethyl)-1,2,4-oxadiazol-3-yl)pyridin-2-yl)oxy)pyrrolidin-1-yl)methanone]
> 70%: inhibition of growth at 300 ppm (Alternaria solani) | pest or weed control at 500 ppm (Phakopsora pachyrhizi) | inhibition of growth at 300 ppm (Rhizoctonia solani) | inhibition of growth at 300 ppm (Pyricularia oryzae) | inhibition of growth at 300 ppm (Botrytis cinerea)

CN(c1ccc(-c2noc(C(F)(F)F)n2)cc1)C1CN(C(=O)c2cccc(F)c2)C1 [Compound 96, (3-fluorophenyl)(3-(methyl(4-(5-(trifluoromethyl)-1,2,4-oxadiazol-3-yl)phenyl)amino)azetidin-1-yl)methanone]
> 70%: inhibition of growth at 300 ppm (Alternaria solani) | inhibition of growth at 300 ppm (Pyricularia oryzae) | inhibition of growth at 300 ppm (Colletotrichum capsici)

FC(F)(F)c1nc(-c2ccc(OC3CCNCC3)cc2)no1 [Compound 85, 3-(4-(piperidin-4-yloxy)phenyl)-5-(trifluoromethyl)-1,2,4-oxadiazole Hydrochloride]
> 70%: inhibition of growth at 300 ppm (Alternaria solani) | pest or weed control at 500 ppm (Phakopsora pachyrhizi) | inhibition of growth at 300 ppm (Rhizoctonia solani) | inhibition of growth at 300 ppm (Pyricularia oryzae) | inhibition of growth at 300 ppm (Corynespora cassicola)

O=C(c1ccncc1)N1CC[C@H](Oc2ccc(-c3noc(C(F)(F)F)n3)cc2F)C1 [Compound 59, (S)-(3-(2-fluoro-4-(5-(trifluoromethyl)-1,2,4-oxadiazol-3-yl)phenoxy)pyrrolidin-1-yl)(pyridin-4-yl)methanone]
> 70%: inhibition of growth at 300 ppm (Alternaria solani) | pest or weed control at 500 ppm (Phakopsora pachyrhizi) | inhibition of growth at 300 ppm (Rhizoctonia solani) | inhibition of growth at 300 ppm (Pyricularia oryzae) | inhibition of growth at 300 ppm (Colletotrichum capsici) | inhibition of growth at 300 ppm (Botrytis cinerea)

FC(F)(F)c1nc(-c2ccc(O[C@H]3CCN(Cc4ccc(Cl)cc4)C3)cc2)no1 [Compound 180, (S)-3-(4-((1-(4-chlorobenzyl)pyrrolidin-3-yl)oxy)phenyl)-5-(trifluoromethyl)-1,2,4-oxadiazole]
> 70%: inhibition of growth at 300 ppm (Alternaria solani) | inhibition of growth at 300 ppm (Pyricularia oryzae) | inhibition of growth at 300 ppm (Corynespora cassicola) | inhibition of growth at 300 ppm (Colletotrichum capsici) | inhibition of growth at 300 ppm (Botrytis cinerea)

CN(c1ccc(-c2noc(C(F)(F)F)n2)cc1)C1CN(C(=O)c2ccccc2)C1 [Compound 87, (3-(methyl(4-(5-(trifluoromethyl)-1,2,4-oxadiazol-3-yl)phenyl)amino)azetidin-1-yl)(phenyl)methanone]
> 70%: pest or weed control at 500 ppm (Phakopsora pachyrhizi) | inhibition of growth at 300 ppm (Colletotrichum capsici)

COc1ccc(C(=O)N2CC(N(C)c3ccc(-c4noc(C(F)(F)F)n4)cc3)C2)cc1 [Compound 98, (4-methoxyphenyl)(3-(methyl(4-(5-(trifluoromethyl)-1,2,4-oxadiazol-3-yl)phenyl)amino)azetidin-1-yl)methanone]
> 70%: inhibition of growth at 300 ppm (Alternaria solani) | inhibition of growth at 300 ppm (Pyricularia oryzae)

O=C(c1ccncc1)N1CC[C@H](Oc2ccc(-c3noc(C(F)(F)F)n3)cc2)C1 [Compound 13, (S)-pyridin-4-yl(3-(4-(5-(trifluoromethyl)-1,2,4-oxadiazol-3-yl)phenoxy)pyrrolidin-1-yl)methanone]
> 70%: inhibition of growth at 300 ppm (Fusarium culmorum) | inhibition of growth at 300 ppm (Alternaria solani) | pest or weed control at 500 ppm (Phakopsora pachyrhizi) | inhibition of growth at 300 ppm (Rhizoctonia solani) | inhibition of growth at 300 ppm (Pyricularia oryzae) | inhibition of growth at 300 ppm (Colletotrichum capsici) | inhibition of growth at 300 ppm (Botrytis cinerea)

O=C(c1ccncc1)N1CC[C@H](Oc2ccc(-c3noc(C(F)(F)F)n3)cn2)C1 [Compound 49, (S)-pyridin-4-yl(3-((5-(5-(trifluoromethyl)-1,2,4-oxadiazol-3-yl)pyridin-2-yl)oxy)pyrrolidin-1-yl)methanone]
> 70%: inhibition of growth at 300 ppm (Alternaria solani) | pest or weed control at 500 ppm (Phakopsora pachyrhizi) | inhibition of growth at 300 ppm (Rhizoctonia solani) | inhibition of growth at 300 ppm (Pyricularia oryzae) | inhibition of growth at 300 ppm (Colletotrichum capsici)

CC(=O)N1CC[C@@H](Sc2ccc(-c3noc(C(F)(F)F)n3)cc2)C1 [Compound 165, (R)-1-(3-((4-(5-(trifluoromethyl)-1,2,4-oxadiazol-3-yl)phenyl)thio)pyrrolidin-1-yl)ethan-1-one]
> 70%: inhibition of growth at 300 ppm (Alternaria solani) | inhibition of growth at 300 ppm (Rhizoctonia solani) | inhibition of growth at 300 ppm (Pyricularia oryzae) | inhibition of growth at 300 ppm (Corynespora cassicola) | inhibition of growth at 300 ppm (Colletotrichum capsici) | inhibition of growth at 300 ppm (Botrytis cinerea)

FC(F)(F)c1nc(-c2ccc(S[C@@H]3CCNC3)cc2)no1 [Compound 158, (R)-3-(4-(pyrrolidin-3-ylthio)phenyl)-5-(trifluoromethyl)-1,2,4-oxadiazole Hydrochloride]
> 70%: inhibition of growth at 300 ppm (Alternaria solani) | inhibition of growth at 300 ppm (Corynespora cassicola)

O=C(c1cccnc1)N1CC[C@H](Oc2ccc(-c3noc(C(F)(F)F)n3)cc2F)C1 [Compound 58, (S)-(3-(2-fluoro-4-(5-(trifluoromethyl)-1,2,4-oxadiazol-3-yl)phenoxy)pyrrolidin-1-yl)(pyridin-3-yl)methanone]
> 70%: inhibition of growth at 300 ppm (Alternaria solani) | inhibition of growth at 300 ppm (Pyricularia oryzae)

O=C(c1cocn1)N1CC[C@H](Oc2ccc(-c3noc(C(F)(F)F)n3)cn2)C1 [Compound 199, (S)-oxazol-4-yl(3-((5-(5-(trifluoromethyl)-1,2,4-oxadiazol-3-yl)pyridin-2-yl)oxy)pyrrolidin-1-yl)methanone]
> 70%: inhibition of growth at 300 ppm (Fusarium culmorum) | inhibition of growth at 300 ppm (Alternaria solani) | inhibition of growth at 300 ppm (Pyricularia oryzae) | inhibition of growth at 300 ppm (Colletotrichum capsici)

CN(c1ccc(-c2noc(C(F)(F)F)n2)cc1)C1CN(C(=O)Cc2ccccc2)C1 [Compound 99, 1-(3-(methyl(4-(5-(trifluoromethyl)-1,2,4-oxadiazol-3-yl)phenyl)amino)azetidin-1-yl)-2-phenylethan-1-one]
> 70%: inhibition of growth at 300 ppm (Alternaria solani) | inhibition of growth at 300 ppm (Pyricularia oryzae)
